# Test system: rabbit skeletal myofibrils (fast skeletal myofibrils)
# Assay: Activation of fast skeletal myofibrils (PUMA assay, PK/LDH-coupled ATPase at pCa25)
# Type: biochemical
# Conditions: AC1.4 determined according to the procedure of Example 39; reported as class symbols
# Outline: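 Detergent-washed rabbit psoas myofibrils (~90% fast fibres, calcium-regulated) assayed at calcium giving 25% of maximal ATPase rate (pCa25). ADP turnover coupled via pyruvate kinase/lactate dehydrogenase to NADH oxidation, read at 340 nm. Buffer 12 mM PIPES, 2 mM MgCl2, 1 mM DTT, pH 6.8; AC1.4 values derived.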
row,Structure (SMILES),Mean AC1.4
1,CC(C)(CNc1ccc(-c2ccc(N)nc2)nn1)c1ccc(F)cc1 [[6-(6-amino(3-pyridyl))pyridazin-3-yl][2-(4-fluorophenyl)-2-methylpropyl]amine],A (A=<1 uM)
2,Cc1cc(NCC(C)(C)c2ccc(F)cc2)nnc1-c1cccc(C(N)=O)c1 [3-(6-{[2-(4-fluorophenyl)-2-methylpropyl]amino}-4-methylpyridazin-3-yl)benzamide],B (B=1-10 uM)
3,CC(=O)N1CC(CNc2ccc(-c3cccc(C(N)=O)c3)nn2)(c2ncccc2F)C1 [3-[6-({[1-acetyl-3-(3-fluoro(2-pyridyl))azetidin-3-yl]methyl}amino)pyridazin-3-yl]benzamide],D (D=>20 uM)
4,CC(C)(CNc1ccc(-c2ccc(N)cc2)nn1)c1ccc(F)cc1 [[6-(4-aminophenyl)pyridazin-3-yl][2-(4-fluorophenyl)-2-methylpropyl]amine],A (A=<1 uM)
5,CC(C)(CNc1ccc(-c2ccc3[nH]nc(N)c3c2)nn1)c1ccc(C#N)cc1,A (A=<1 uM)
6,CC(C)(C)OC(=O)NCc1cccc(-c2ccc(NCC(C)(C)c3ccc(F)cc3)nn2)c1 [(tert-butoxy)-N-{[3-(6-{[2-(4-fluorophenyl)-2-methylpropyl]amino}pyridazin-3-yl)phenyl]methyl}carboxamide],B (B=1-10 uM)
7,Fc1cccnc1C1(CNc2ccc(-c3ccc4[nH]ncc4c3)nn2)CNC1 [(6-(1H-indazol-5-yl)pyridazin-3-yl){[3-(3-fluoro(2-pyridyl))azetidin-3-yl]methyl}amine],D (D=>20 uM)
8,"CC(C)(CNc1ccc(-c2ccc3[nH]c(=O)[nH]c(=O)c3c2)nn1)c1ccc(F)cc1 [6-(6-{[2-(4-fluorophenyl)-2-methylpropyl]amino}pyridazin-3-yl)-1,3-dihydroquinazoline-2,4-dione]",B (B=1-10 uM)

# Same assay, conditions: median AC1.4 class, procedure of Example 39
row,Structure (SMILES),Mean AC1.4
1,Fc1cccnc1C1(Nc2ccc(-c3ccccc3)nn2)CCC1 [[(3-fluoro(2-pyridyl))cyclobutyl](6-phenylpyridazin-3-yl)amine],B (B=1-10 uM)
2,"CC(=O)N1CCN[C@H](C(=O)NCc2cnc(-c3ccc(NCC4(c5ncccc5F)CCC4)nn3)s2)C1 [((2S)-4-acetylpiperazin-2-yl)-N-({2-[6-({[(3-fluoro(2-pyridyl))cyclobutyl]methyl}ami-no)pyridazin-3-yl](1,3-thiazol-5-yl)}methyl)carboxamide]",A (A=<1 uM)
3,"N[C@H](CO)C(=O)NCc1cnc(-c2ccc(NCC3(c4ncccc4F)CCC3)nn2)s1 [(2R)-2-amino-N-({2-[6-({[(3-fluoro(2-pyridyl))cyclobutyl]methyl}ami-no)pyridazin-3-yl](1,3-thiazol-5-yl)}methyl)-3-hydroxypropanamide]",A (A=<1 uM)
4,CCOC(=O)c1cc(-c2ccc(NCC3(c4ncccc4F)CCC3)nn2)on1,D (D=>20 uM)
5,"N[C@@H](CO)C(=O)NCc1cnc(-c2ccc(NCC3(c4ncccc4F)CCC3)nn2)s1 [(2S)-2-amino-N-({2-[6-({[(3-fluoro(2-pyridyl))cyclobutyl]methyl}ami-no)pyridazin-3-yl](1,3-thiazol-5-yl)}methyl)-3-hydroxypropanamide]",A (A=<1 uM)
6,Cn1nc(-c2ccc(NCC3(c4ncccc4F)CCC3)nn2)cc1C(N)=O,B (B=1-10 uM)
7,"COC(=O)c1csc(-c2ccc(NCC3(c4ncccc4F)CCC3)nn2)n1 [methyl 2-[6-({[(3-fluoro-2-pyridyl)cyclobutyl]methyl}ami-no)pyridazin-3-yl]-1,3-thiazole-4-carboxylate]",D (D=>20 uM)
8,NC(=O)Nc1n[nH]c2ccc(-c3ccc(NCC4(c5ncccc5F)CCC4)nn3)cc12,A (A=<1 uM)
9,"Fc1cccnc1C1(CNc2ccc(-c3ccc4cn[nH]c4c3)nn2)CC(F)(F)C1 [(6-(1H-indazol-6-yl)pyridazin-3-yl){[3,3-difluoro-1-(3-fluoro(2-pyridyl))cyclobutyl]methyl}amine]",B (B=1-10 uM)
10,N#Cc1ccc(C2(Nc3ccc(-c4cccc(C(N)=O)c4)nn3)CCC2)cc1,D (D=>20 uM)
11,NC(=O)c1cccc(-c2ccc(NC3(c4cccc(OC(F)F)n4)CCC3)nn2)c1,A (A=<1 uM)
12,CC(C)(Nc1ccc(-c2cccc(C(N)=O)c2)nn1)c1ccccn1 [3-{6-[(1-methyl-1-(2-pyridyl)ethyl)amino]pyridazin-3-yl}benzamide],D (D=>20 uM)
13,"CNC(=O)c1cnc(-c2ccc(NCC3(c4ncccc4F)CCC3)nn2)s1 [{2-[6-({[(3-fluoro(2-pyridyl))cyclobutyl]methyl}ami-no)pyridazin-3-yl](1,3-thiazol-5-yl)}-N-methylcarboxamide]",A (A=<1 uM)
14,CCOC(=O)/C=C/c1ccc(NC2(c3ncccc3F)CCC2)nn1,D (D=>20 uM)
15,NC(=O)c1ccc(F)c(-c2ccc(NC3(c4ncccc4F)CCCC3)nn2)c1,A (A=<1 uM)
16,COc1cccc(-c2ccc(NC3(c4ccc(F)cc4)CCC3)nn2)n1 [[(4-fluorophenyl)cyclobutyl][6-(6-methoxy(2-pyridyl))pyridazin-3-yl]amine],B (B=1-10 uM)
17,Fc1ccc(C2(Nc3ccc(-c4ccc5[nH]cnc5c4)nn3)CCC2)cc1 [(6-benzimidazol-5-ylpyridazin-3-yl)[(4-fluorophenyl)cyclobutyl]amine],A (A=<1 uM)
18,Fc1cccnc1C1(CNc2ccc(-c3cnccn3)nn2)CCC1 [{[(3-fluoro(2-pyridyl))cyclobutyl]methyl}(6-pyrazin-2-ylpyridazin-3-yl)amine],B (B=1-10 uM)
19,"O=C(NCc1cnc(-c2ccc(NCC3(c4ncccc4F)CCC3)nn2)s1)[C@H]1C[C@@H](F)CN1 [((2R,4R)-4-fluoropyrrolidin-2-yl)-N-({2-[6-({[(3-fluoro(2-pyridyl))cyclobutyl]methyl}ami-no)pyridazin-3-yl](1,3-thiazol-5-yl)}methyl)carboxamide]",A (A=<1 uM)
20,"NC(=O)c1nnc(-c2ccc(NCC3(c4ncccc4F)CCC3)nn2)[nH]1 [5-[6-({[(3-fluoro-2-pyridyl)cyclobutyl]methyl}ami-no)pyridazin-3-yl]-4H-1,2,4-triazole-3-carboxamide]",C (C=10-20 uM)

# Same assay, conditions: median AC1.4 reported as class; procedure of Example 39
row,Structure (SMILES),Mean AC1.4
1,O=C(Nc1ccon1)c1ccc(NCC2(c3ncccc3F)CCC2)nn1 [[6-({[(3-fluoro(2-pyridyl))cyclobutyl]methyl}ami-no)pyridazin-3-yl]-N-isoxazol-3-ylcarboxamide],B (B=1-10 uM)
2,"COC(=O)NC1CCc2sc(-c3ccc(NCC4(c5ncccc5F)CCC4)nn3)nc21 (stereo not drawn) [N-{2-[6-({[(3-fluoro(2-pyridyl))cyclobutyl]methyl}ami-no)pyridazin-3-yl](4,5,6-trihydrocyclopenta[2,3-d]1,3-thiazol-4-yl)}methoxycarboxamide]",D (D=>20 uM)
3,CNC(=O)c1ccc(NCC2(c3ncccc3F)CCC2)nn1 [[6-({[(3-fluoro(2-pyridyl))cyclobutyl]methyl}ami-no)pyridazin-3-yl]-N-methylcarboxamide],D (D=>20 uM)
4,Cc1cc(NCC2(c3ncccc3F)CCC2)nnc1-c1cc(C(N)=O)ccc1F [4-fluoro-3-[6-({[(3-fluoro(2-pyridyl))cyclobutyl]methyl}ami-no)-4-methylpyridazin-3-yl]benzamide],C (C=10-20 uM)
5,"O=C(Nc1nnc[nH]1)c1ccc(NCC2(c3ncccc3F)CCC2)nn1 [N-(1H-1,2,4-triazol-5-yl)[6-({[(3-fluoro(2-pyridyl))cyclobutyl]methyl}ami-no)pyridazin-3-yl]carboxamide]",D (D=>20 uM)

# Reference: patent US10076519B2 (CYTOKINETICS, INC., priority 2010, dated 2018)
